Key:
[1] = system: anti-CD28 scFv (SEQ ID NO: 9); assay: Octet bio-layer interferometry kinetic binding of anti-CD28 scFv to peptides; parameters: species or system human; conditions: Octet RED96, 1:1 binding model
Protocol: (§1) Association and dissociation signals were recorded in real time and analyzed using a 1:1 binding model within the instrument software. Analysis using a 1:1 binding model enabled the calculation of the on and off rate constants as well as affinity, KD.
as §1

Ab-12 = assay: Octet bio-layer interferometry kinetic binding of Ab-12 to peptides; conditions: Octet RED96, 1:1 binding model; for Kd: biotinylated peptide loaded at 200 nM on streptavidin biosensors, Ab-12 100, 50, 25, 12.5 nM; for kdis: peptide on sensor, Ab-12 100-12.5 nM
Protocol: Briefly, streptavidin biosensors were loaded with biotinylated peptides and baselined in buffer. […] After a short association period, sensors were transferred into buffer and the dissociation of bound anti-CD28 scFv or Ab-12 was measured. The timing and steps of the experiment are shown in the accompanying table. Association and dissociation signals were recorded in real time and analyzed using a 1:1 binding model within the instrument software. Analysis using a 1:1 binding model enabled the calculation of the on and off rate constants as well as affinity, KD.

[2] = biotinylated peptide loaded on streptavidin biosensor, anti-CD28 scFv in solution
[3] = peptide on sensor, CD28 scFv 100-12.5 nM

| Structure (SMILES) | kdis [1, 2] | kdis [1, 3] | Kd (Ab-12) | kdis (Ab-12) |
| --- | --- | --- | --- | --- |
| CSCC[C@H](N)C(=O)N[C@@H](CC(=O)O)C(=O)N[C@@H](Cc1c[nH]c2ccccc12)C(=O)N[C@H]1CSSC[C@@H](C(=O)N[C@@H](Cc2ccccc2)C(=O)N[C@@H](Cc2ccccc2)C(=O)O)NC(=O)[C@H](CC(=O)O)NC(=O)[C@H](C(C)C)NC(=O)[C@H](Cc2c[nH]c3ccccc23)NC(=O)[C@H](CCCNC(=N)N)NC(=O)[C@H](CCC(=O)O)NC(=O)[C@H](CCCNC(=N)N)NC(=O)[C@@H]2CCCN2C1=O [Peptide-9] | 0.0115 s⁻¹ | 0.0123 s⁻¹ | 18.8 nM | 0.00317 s⁻¹ |
| CSCC[C@@H]1NC(=O)[C@H](CC(=O)O)NC(=O)CNC(=O)[C@H](Cc2c[nH]c3ccccc23)NC(=O)[C@H](Cc2ccc(O)cc2)NC(=O)[C@H](Cc2c[nH]cn2)NC(=O)[C@@H](NC(=O)[C@H](Cc2ccc(O)cc2)NC(=O)CN)CSSC[C@@H](C(=O)NCC(=O)O)NC(=O)[C@H](Cc2c[nH]c3ccccc23)NC(=O)[C@H](CCSC)NC(=O)[C@H](C(C)C)NC1=O [Peptide-12] | – | 0.00167 s⁻¹ | 13.1 nM | 0.00127 s⁻¹ |
| CSCC[C@H](N)C(=O)N[C@@H](CC(=O)O)C(=O)N[C@@H](Cc1c[nH]c2ccccc12)C(=O)N[C@H]1CSSC[C@@H](C(=O)N[C@@H](Cc2ccccc2)C(=O)N[C@@H](C)C(=O)O)NC(=O)[C@H](Cc2c[nH]cn2)NC(=O)[C@H](C(C)C)NC(=O)[C@H](Cc2c[nH]c3ccccc23)NC(=O)[C@H](CC(C)C)NC(=O)[C@H](CC(=O)O)NC(=O)[C@H](CCCNC(=N)N)NC(=O)[C@@H]2CCCN2C1=O [Peptide-41] | 0.00154 s⁻¹ | – | – | – |
| CSCC[C@@H]1NC(=O)[C@H](CC(=O)O)NC(=O)[C@H](CCCNC(=N)N)NC(=O)[C@@H]2CCCN2C(=O)[C@@H](NC(=O)[C@H](Cc2c[nH]c3ccccc23)NC(=O)[C@H](CC(=O)O)NC(=O)[C@@H](N)CCSC)CSSC[C@@H](C(=O)N[C@@H](Cc2ccccc2)C(=O)N[C@@H](C)C(=O)O)NC(=O)[C@H](CCC(=O)O)NC(=O)[C@H](CC(=O)O)NC(=O)[C@H](Cc2c[nH]c3ccccc23)NC1=O [Peptide-42] | 0.00433 s⁻¹ | – | – | – |
| CSCC[C@@H]1NC(=O)[C@H](CC(=O)O)NC(=O)[C@H](CCCNC(=N)N)NC(=O)[C@@H]2CCCN2C(=O)[C@@H](NC(=O)[C@H](Cc2c[nH]c3ccccc23)NC(=O)[C@H](CC(=O)O)NC(=O)[C@@H](N)CCSC)CSSC[C@@H](C(=O)N[C@@H](Cc2ccccc2)C(=O)N[C@@H](C)C(=O)O)NC(=O)[C@H](CCC(=O)O)NC(=O)[C@H](CO)NC(=O)[C@H](Cc2c[nH]c3ccccc23)NC1=O [Peptide-43] | 0.0032 s⁻¹ | – | – | – |
| CSCC[C@@H]1NC(=O)[C@H](CC(=O)O)NC(=O)[C@H](CCCNC(=N)N)NC(=O)[C@@H]2CCCN2C(=O)[C@@H](NC(=O)[C@H](Cc2c[nH]c3ccccc23)NC(=O)[C@H](CC(=O)O)NC(=O)[C@@H](N)CCSC)CSSC[C@@H](C(=O)N[C@@H](Cc2ccccc2)C(=O)N[C@@H](CO)C(=O)O)NC(=O)[C@H](C(C)C)NC(=O)[C@H](CO)NC(=O)[C@H](Cc2c[nH]c3ccccc23)NC1=O [Peptide-44] | 0.00812 s⁻¹ | – | – | – |
| CSCC[C@@H]1NC(=O)[C@H](Cc2ccccc2)NC(=O)[C@H](CCCNC(=N)N)NC(=O)[C@@H]2CCCN2C(=O)[C@@H](NC(=O)[C@H](Cc2c[nH]c3ccccc23)NC(=O)[C@H](CC(=O)O)NC(=O)[C@@H](N)CCSC)CSSC[C@@H](C(=O)N[C@@H](Cc2ccccc2)C(=O)N[C@@H](CC(N)=O)C(=O)O)NC(=O)[C@H](CCC(=O)O)NC(=O)[C@H](CC(=O)O)NC(=O)[C@H](Cc2c[nH]c3ccccc23)NC1=O [Peptide-45] | 0.00364 s⁻¹ | – | – | – |
| CSCC[C@@H]1NC(=O)[C@H](Cc2c[nH]cn2)NC(=O)[C@H](CCCNC(=N)N)NC(=O)[C@@H]2CCCN2C(=O)[C@@H](NC(=O)[C@H](Cc2c[nH]c3ccccc23)NC(=O)[C@H](CC(=O)O)NC(=O)[C@@H](N)CCSC)CSSC[C@@H](C(=O)N[C@@H](Cc2ccccc2)C(=O)N[C@@H](C)C(=O)O)NC(=O)[C@H](Cc2ccc(O)cc2)NC(=O)[C@H](CC(N)=O)NC(=O)[C@H](Cc2c[nH]c3ccccc23)NC1=O [Peptide-46] | 0.00218 s⁻¹ | – | – | – |
| CSCC[C@H](N)C(=O)N[C@@H](CC(=O)O)C(=O)N[C@@H](Cc1c[nH]c2ccccc12)C(=O)N[C@H]1CSSC[C@@H](C(=O)N[C@@H](Cc2ccccc2)C(=O)N[C@@H](C)C(=O)O)NC(=O)[C@H](CCC(=O)O)NC(=O)[C@H](Cc2c[nH]cn2)NC(=O)[C@H](Cc2c[nH]c3ccccc23)NC(=O)[C@H](CC(C)C)NC(=O)[C@H](CO)NC(=O)[C@H](CCCNC(=N)N)NC(=O)[C@@H]2CCCN2C1=O [Peptide-47] | 0.00201 s⁻¹ | – | – | – |
| CSCC[C@H](N)C(=O)N[C@@H](CC(=O)O)C(=O)N[C@@H](Cc1c[nH]c2ccccc12)C(=O)N[C@H]1CSSC[C@@H](C(=O)N[C@@H](Cc2ccccc2)C(=O)N[C@@H](C)C(=O)O)NC(=O)[C@H](C(C)C)NC(=O)[C@H](Cc2c[nH]cn2)NC(=O)[C@H](Cc2c[nH]c3ccccc23)NC(=O)[C@H](CC(C)C)NC(=O)[C@H](Cc2ccc(O)cc2)NC(=O)[C@H](CCCNC(=N)N)NC(=O)[C@@H]2CCCN2C1=O [Peptide-48] | 0.00187 s⁻¹ | – | – | – |
| CSCC[C@H](N)C(=O)N[C@@H](Cc1c[nH]cn1)C(=O)N[C@@H](Cc1c[nH]c2ccccc12)C(=O)N[C@H]1CSSC[C@@H](C(=O)N[C@@H](Cc2ccc(O)cc2)C(=O)N[C@@H](CC(N)=O)C(=O)O)NC(=O)[C@H](CC(C)C)NC(=O)[C@H](Cc2ccc(O)cc2)NC(=O)[C@H](Cc2c[nH]c3ccccc23)NC(=O)[C@H](CC(C)C)NC(=O)[C@H](CC(=O)O)NC(=O)[C@H](C(C)C)NC(=O)[C@@H]2CCCN2C1=O [Peptide-49] | 0.00186 s⁻¹ | – | – | – |
| CSCC[C@H](N)C(=O)N[C@@H](CC(=O)O)C(=O)N[C@@H](Cc1c[nH]c2ccccc12)C(=O)N[C@H]1CSSC[C@@H](C(=O)N[C@@H](Cc2ccccc2)C(=O)N[C@@H](C)C(=O)O)NC(=O)[C@H](C(C)C)NC(=O)[C@H](CO)NC(=O)[C@H](Cc2c[nH]c3ccccc23)NC(=O)[C@H](CC(C)C)NC(=O)[C@H](Cc2c[nH]cn2)NC(=O)[C@H](C(C)C)NC(=O)[C@@H]2CCCN2C1=O [Peptide-50] | 0.00443 s⁻¹ | – | – | – |

Reference: patent US20230357447A1, “TUMOR ACTIVATED MULTISPECIFIC ANTIBODIES FOR TARGETING CD28 AND PD-L1 AND METHODS OF USE THEREOF” (Janux Therapeutics, Inc., priority 2022, published 2023)
